{"source": "paper PMC7054612", "about": "“In vitro and in vivo pharmacokinetic characterization of LMT-28 as a novel small molecular interleukin-6 inhibitor” (Asian-Australasian Journal of Animal Sciences, 2019)", "key": {"[1]": {"experiment": "Plasma protein binding assay", "format": "in vitro ADME"}, "[2]": {"experiment": "Metabolic stability in human liver microsomes", "format": "in vitro ADME", "conditions": "pH 7.4", "description": "(§1) Metabolic stability using rat and human liver microsomes (Corning Gentest, USA) of LMT-28 was performed according to previous reported protocol. In brief, NADPH regeneration solution (Corning Gentest, USA) was added to initiate the metabolic reaction after mixing LMT-28 (final concentrations; 1 μM) with human or rat liver microsomes (0.5 mg protein/mL) in 100 mM potassium phosphate buffer (pH 7.4). After incubation at 37°C at 0, 10, 30, and 60 min, the reaction was terminated by adding three times of ice-cold acetonitrile containing internal standard (carbamazepine 10 ng/mL). After mixing by vortex and centrifugation at 10,000 g for 5 min at 4°C, the supernatants were transferred to fresh LC vials. Samples (5 μL) were analyzed by directly injection into a liquid chromatography-tandem mass spectrometry (LC-MS/MS) system for the quantification of LMT-28.\n(§2) The metabolic half-life and in vitro intrinsic clearance of LMT-28 were calculated by next equations [19].\n(§3) Half-life (t1/2) (h)=-0.693/KCLint,in vitro(μL/min/mg protein)=(0.693/t1/2,microsomal)×(μL incubation/mg microsomal protein)CLint,in vivo(mL/min/kg)=(0.693/t1/2,microsomal)×(mL incubation/mg microsomal protein)×(mg microsomal protein/g liver)×(g liver/kg body weight)\n(§4) where K is the elimination rate constant of LMT-28 in the microsomal metabolic reaction, half-life (t1/2) is microsomal metabolic half-life, CLint, in vitro is in vitro intrinsic clearance, and CLint, in vivo is in vivo intrinsic clearance. The liver weight relative to the body weight in the rat and human are 40 and 21 g/kg, respectively."}, "[3]": {"experiment": "Stability during sample handling and processing for LC-MS/MS analysis in biological fluids", "conditions": "plasma or microsomal reaction solution", "description": "(§5) The concentrations of LMT-28 in plasma or microsomal reaction solution were determined by LC-MS/MS. For the sample preparation before LC-MS/MS analysis, three times (75 μL) of acetonitrile containing internal standard (carbamazepine 10 ng/mL) were added to 25 μL aliquots of the plasma samples. The samples were vortex-mixed and centrifuged at 10,000 g for 5 min at 4°C for the protein precipitation. The supernatant (90 μL) was transferred to LC vials and 5 μL was injected onto a LC-MS/MS system.\n(§6) Mass spectrometric detection of LMT-28 was performed on an API 4000 Qtrap mass spectrometer (AB Sciex, Foster City, CA, USA) equipped with a positive electrospray ionization source. The chromatographic separation was performed on Hypersil Gold C18 column (50 mm×2.1 mm i.d., 3 μm particle size; ThermoFisher Scientific, USA) with a flow rate of 0.3 mL/min. The positive multiple reaction monitoring (MRM) mode were based on the most abundant product ions at m/z 312 → 165 for LMT-28, and m/z 237 → 194 for internal standard. Other parameters were the nebulizing (GS1), 50 psi; heating (GS2), 50 psi; collision energy, 23 eV for LMT-28 and 15 eV for internal standard, respectively. Analyst software version 1.4.2 (AB Sciex, USA) was used for the analysis of LMT-28 concentrations."}, "[4]": {"experiment": "Metabolic stability in rat liver microsomes", "format": "in vitro ADME", "conditions": "pH 7.4", "description": "as §1, §2, §3, §4"}, "[5]": {"system": "IL-6-induced STAT3 activation", "experiment": "Western blot analysis for inhibitory effect on IL-6-induced signaling (p-STAT3) in HepG2 cells", "format": "cell-based", "conditions": "HepG2 cells pre-treated with LMT-28 (1, 3, 10, 30, 100 μM) for 1 h, then IL-6 10 ng/mL for 10 min; Western blotting", "description": "HepG2 cells were seeded in MEM media (Welgene, Gyeongsan, Korea) with 10% (v/v) feta bovine serum, streptomycin (100 U/mL), and penicillin (100 U/mL; Life Technologies, Carlsbad, CA, USA). After seeding, cells were starved overnight, treated with LMT-28 for 1 h, and stimulated with IL-6 (10 ng/mL; R&D Systems, Minneapolis, MN, USA) for 10 min. Cells were treated with cell lysis buffer (Promega, Madison, WI, USA) for 30 min on ice. Cell lysates were separated on an 8% sodium dodecyl sulfate-polyacrylamide gel electrophoresis gel, then transferred to nitrocellulose membranes (Schleicher & Schuell, Dassel, Germany). The membranes were blocked overnight in Tris-buffered solution (50 mM Tris-HCl [pH 7.4], 150 mM NaCl, 0.1% Tween 20) containing 5% nonfat dry milk at 4°C and then incubated for 1 h with the appropriate primary Abs against p-STAT3 (MilliporeSigma, Burlington, MA, USA) or α-tubulin in Tris-buffered solution (TBST; 50 mM Tris-HCl [pH 7.4], 150 mM NaCl, 0.1% Tween 20) containing 5% nonfat dry milk at room temperature. The membranes were washed (10 min, five times) and incubated for 1 h with horseradish peroxidase-conjugated secondary Abs diluted to 1:6,000. After 10 washes, the membranes were incubated with enhanced chemiluminescence reagents (MilliporeSigma, USA) and chemiluminescent signals were visualized using X-ray film."}, "[6]": {"experiment": "MDCK cell permeability assay", "format": "in vitro ADME, canine", "conditions": "dog, MDCK cell monolayers", "description": "In order to determine cell permeability of LMT-28, Madin-Darby canine kidney (MDCK) cells were cultured and seeded at a density of 6×10^4cells/cm^2 in 12-well Transwell plates. After checking cell monolayer integrity, the transepithelial electrical resistance (TEER) values (>500 ohms) were measured using an EVOM epithelial voltohmmeter (World Precision Instruments, Sarasota, FL, USA). After pre-incubation for 30 min at 37°C, LMT-28 (final concentrations of 2, 10, and 50 μM) was added to the donor wells in transport assay system. Sample aliquots (100 μL) were collected every 30 min for 120 min, and the same volume of fresh buffer added. The aliquots were stored at −20°C until quantitative analysis of LMT-28 concentrations by LC–MS/MS system. The apparent permeability coefficient (Papp, cm/s) was calculated as following equation: […]\nwhere dQ/dt is the permeation rate across cell monolayer, A is the surface area of the monolayer (0.33 cm^2), and C0 is the initial donor concentration."}, "[7]": {"experiment": "Lipophilicity (LogP) by GLpKa, D-PAS method", "format": "physicochemical", "description": "(§7) The shake-flask method was applied to measure the equilibrium solubility of LMT-28 [16, 17]. Excess amount of LMT-28 was added into the water and the suspension was shaken at 25°C during 24 h in a flask for equilibrium solubility. The solution, then, was filtered and the concentration of LMT-28 in the filtered solution was quantified using ultra HPLC (ThermoFisher Scientific, Waltham, MA, USA) at wavelength 254 nm. The lipophilicity of LMT-28 was measured by using GLpKa (Pion, Cambridge, MA, USA) based on dip-probe absorption spectroscopy (D-PAS) method. The resultant values were calculated by LogP software (Pion, USA) and the computational predictions for number of hydrogen bond donors, hydrogen bond acceptors, rotatable bonds and predicted polar surface area (PSA) and LogS were made using Percepta software (ACD/Labs; Toronto, Canada)."}, "[8]": {"experiment": "Equilibrium solubility in water, 24 h shake-flask method", "format": "physicochemical", "conditions": "thermodynamic from solid, 25°C", "description": "as §7"}, "[9]": {"experiment": "In vivo pharmacokinetic study in male BALB/c mice", "conditions": "for AUC(0-t): n = 4, read-out: AUC8h; for half-life: n = 4, read-out: t1/2 (terminal elimination half-life) (converted)", "description": "To evaluate in vivo pharmacokinetics in mice, LMT-28 was dissolved in phosphate-buffered saline (pH 7.4) containing 5% (w/v) carboxymethyl cellulose (MilliporeSigma, USA) and administered orally by using oral needle and intravenously in the mouse tail vein at the dose of 5 mg/kg to male BALB/c mice (22 to 25 g) after overnight fasting. Blood samples (50 μL) were collected at 0.5, 1, 2, 4, 6, and 8 h after oral administration of LMT-28. After taking the blood samples from mice, the samples were centrifuged to obtain plasma samples at 4°C and 10,000 g and obtained plasma samples were stored at −20°C. These plasma samples (25 μL) were used for the quantification of LMT-28 concentration in mice.\nas §5, §6\nThe plasma concentrations versus time profiles of LMT-28 in mice were analyzed by a non-compartmental model using WinNonlin software ver 5.3 (Pharsight, Mountain View, CA, USA). The pharmacokinetic parameters such as area under the plasma concentration-time curve (AUC), peak plasma concentration (Cmax) and the time to reach a peak concentration (Tmax), terminal elimination half-life (t1/2), mean residence time (MRT) after oral administration were obtained from each mouse’s plasma concentration-time plots for LMT-28. All data were expressed as the mean±standard deviation. A value of p<0.05 by student t-test or analysis of variance analysis was considered to be statistically significant."}, "[10]": {"conditions": "mouse, plasma, intravenous (i.v) 5 mg/kg, n = 4"}, "[11]": {"conditions": "mouse, plasma, intravenous (i.v) 5 mg/kg"}, "[12]": {"conditions": "mouse, plasma, oral (p.o.) 5 mg/kg, n = 4"}, "[13]": {"conditions": "mouse, plasma, oral (p.o.) 5 mg/kg"}}, "note": "Read-outs that look alike come from different tables or passages of the source.", "data": [{"smiles": "C=C(CCCCC)[C@@H](O)[C@H](C)C(=O)N1C(=O)OC[C@@H]1C(C)C", "note": "[LMT-28]", "values": [{"measurement": "Plasma protein to which the drug is bound", "setting": "[1]; at 2 μM", "result": "mostly bound to serum albumin"}, {"measurement": "fraction unbound at 2 μM", "setting": "[1]; plasma, read-out: Plasma protein binding (bound drug %) (converted)", "result": 0.076}, {"measurement": "microsomal CLint at 1 μM", "setting": "[2]; human liver microsomes, calculated from human microsomal half-life, read-out: In vitro intrinsic clearance CLint, in vitro (Human)", "result": "64 ± 8.1", "unit": "µL/min/mg"}, {"measurement": "CLint scaled at 1 μM", "setting": "[2]; human liver microsomes, scaled from human microsomal half-life, liver weight 21 g/kg, read-out: In vivo intrinsic clearance CLint, in vivo (Human)", "result": "60 ± 7.7", "unit": "mL/min/kg"}, {"measurement": "half-life at 1 μM", "setting": "[2]; human liver microsomes 0.5 mg protein/mL, 1 μM, NADPH, 37°C, read-out: Liver microsomal stability half-life (t1/2, human)", "result": "0.365 ± 0.0467", "unit": "h"}, {"measurement": "Stability under sample handling and processing", "setting": "[3]", "result": "stable under various conditions of sample handling and processing"}, {"measurement": "half-life at 1 μM", "setting": "[4]; rat liver microsomes 0.5 mg protein/mL, 1 μM, NADPH, 37°C, read-out: Liver microsomal stability half-life (t1/2, rat)", "result": "0.255 ± 0.0233", "unit": "h"}, {"measurement": "microsomal CLint at 1 μM", "setting": "[4]; rat liver microsomes, calculated from rat microsomal half-life, read-out: In vitro intrinsic clearance CLint, in vitro (Rat)", "result": "91 ± 8.4", "unit": "µL/min/mg"}, {"measurement": "CLint scaled at 1 μM", "setting": "[4]; rat liver microsomes, scaled from rat microsomal half-life, liver weight 40 g/kg, read-out: In vivo intrinsic clearance CLint, in vivo (Rat)", "result": "164 ± 15", "unit": "mL/min/kg"}, {"measurement": "Inhibition of IL-6-induced p-STAT3 expression", "setting": "[5]", "result": "inhibit the IL-6-induced p-STAT3 expression in a dose-dependent manner"}, {"measurement": "Papp at 120 min, 10 μM", "setting": "[6]", "result": "9.7 ± 1.8", "unit": "×10⁻⁶ cm/s"}, {"measurement": "logP", "setting": "[7]", "result": "3.65 ± 0.22"}, {"measurement": "solubility at 24 h", "setting": "[8]", "result": "390 ± 120", "unit": "µg/mL"}, {"measurement": "bioavailability", "setting": "[9]; male, BALB/c, mouse, plasma, oral, 5 mg/kg, oral vs intravenous, 5 mg/kg, read-out: F (bioavailability)", "result": "~38.2", "unit": "%"}, {"measurement": "AUC(0-inf)", "setting": "[9]; [10]", "result": "677 ± 264", "unit": "ng·h/mL"}, {"measurement": "MRT", "setting": "[9]; [10]", "result": "1.58 ± 0.32", "unit": "h"}, {"measurement": "clearance", "setting": "[9]; [10]", "result": 144, "unit": "mL/min/kg"}, {"measurement": "AUC(0-t)", "setting": "[9]; [11]", "result": "661 ± 253", "unit": "ng·h/mL"}, {"measurement": "Vd", "setting": "[9]; mouse, plasma, intravenous (i.v) 5 mg/kg, n = 4, read-out: Vss", "result": "12.9 ± 4.66", "unit": "L/kg"}, {"measurement": "half-life", "setting": "[9]; [11]", "result": "1.37 ± 0.29", "unit": "h"}, {"measurement": "AUC(0-inf)", "setting": "[9]; [12]", "result": "302 ± 209", "unit": "ng·h/mL"}, {"measurement": "Cmax", "setting": "[9]; [12]", "result": "137 ± 100", "unit": "ng/mL"}, {"measurement": "MRT", "setting": "[9]; [12]", "result": "1.9 ± 0.55", "unit": "h"}, {"measurement": "Tmax", "setting": "[9]; [12]", "result": "0.8 ± 0.67", "unit": "h"}, {"measurement": "AUC(0-t)", "setting": "[9]; [13]", "result": "292 ± 202", "unit": "ng·h/mL"}, {"measurement": "half-life", "setting": "[9]; [13]", "result": "1.13 ± 0.27", "unit": "h"}, {"measurement": "Share of total AUC (AUC∞) covered by AUC8h", "setting": "[9]; oral 5 mg/kg", "result": "approximately 96.7%"}]}]}
